Data on six compounds can be found in article PMC8235661, “Photoelectric Dye, NK-5962, as a Potential Drug for Preventing Retinal Neurons from Apoptosis: Pharmacokinetic Studies Based on Review of the Evidence” (Life, 2021).

Series [1] in a line: Reactive oxygen species (ROS) assay under simulated sunlight. Type of series: physicochemical. The conditions noted are these: for Reactive Oxygen Species Generation Singlet oxygen / Reactive Oxygen Species Generation Superoxide: 200 µM, simulated sunlight 1 h, mean ± standard deviation (n = 3). On the procedure:
The ROS assay was designed to detect both singlet oxygen and superoxide generated from photo-irradiated chemicals. Briefly, singlet oxygen was measured in aqueous solution by spectrophotometrically monitoring the bleaching of p-nitrosodimethylaniline at 440 nm using imidazole as a selective acceptor of singlet oxygen. Samples containing the tested chemical (20 or 200 μM), p-nitrosodimethylaniline (50 μM), and imidazole (50 μM) in 20 mM sodium phosphate buffer (pH 7.4) were mixed in a tube. Each sample in 200 μL was transferred into a well of a plastic 96-well plate (clear, untreated, and flat-bottomed) and checked for precipitation under a microscope with an objective lens (×100) before light exposure. The plate was subjected to a measurement of absorbance at 440 nm using a microplate spectrophotometer. The plate was fixed in the quartz reaction container with a quartz cover and then irradiated with the simulated sunlight (ultraviolet A/B and visible light, 250 W/m^2, Suntest CPS plus, Atlas Material Testing Technology, Mount Prospect, IL, USA) for 1 h. After agitation on a plate shaker, the UV absorbance at 440 nm was measured. For the determination of superoxide, samples containing the test chemical (20 or 200 μM) and nitroblue tetrazolium (50 μM) in 20 mM sodium phosphate buffer were irradiated with the simulated sunlight for 1 h and the reduction in nitroblue tetrazolium was measured by the increase in absorbance at 560 nm in the same manner as the singlet oxygen determination. Experiments were performed in triplicate wells in three independent runs. As the final concentration, 200 μM test chemical solutions should be subjected to the ROS assay. However, when precipitation could be observed at 200 μM under the optical microscope, additional experiments should be performed under appropriate dilution (20, 50, or 100 μM).

Details of series [2]: method as in PMID 18185985. The conditions noted are these: cited from earlier work.
A short description of series [3]: PAMPA (parallel artificial membrane permeability assay). Type of series: in vitro ADME. On the procedure: In order to determine the passive membrane diffusion rates, the Corning Gentest Pre-coated PAMPA Plate System was used in the PAMPA test. […] The acceptor plate was then placed on top of the donor plate and incubated at 37 °C without agitation for 4 h. At the end of the incubation, the plates were separated and the solutions from each well of both the acceptor plate and the donor plate were transferred to 96-well plates and mixed with acetonitrile. The final concentrations of compound in both the donor wells and acceptor wells, as well as the concentrations of the initial donor solutions, were analyzed by LC-MS/MS. The permeability of the compound was calculated according to the previous report.
In general terms: The PAMPA barrier holds no transporters, so it reflects passive diffusion.

In the case of `COc1cc(O)c(C(=O)c2ccccc2)cc1S(=O)(=O)O` [Sulisobenzone], in series [1], the “Reactive Oxygen Species Generation Singlet oxygen” value was “Not detected” and the “Reactive Oxygen Species Generation Superoxide” value was “Not detected”. Turning to `C=C[C@H]1C[N@@]2CC[C@H]1C[C@H]2[C@H](O)c1ccnc2ccc(OC)cc12` [Quinine], in series [1], the “Reactive Oxygen Species Generation Singlet oxygen” value is 602 ± 7 ΔA440 × 1000 and the “Reactive Oxygen Species Generation Superoxide” value is listed as 348 ± 12 ΔA560 × 1000.

Regarding `O=C(O)c1cc(/N=N/c2ccc(S(=O)(=O)Nc3ccccn3)cc2)ccc1O` [sulfasarazine], the “gastrointestinal absorption in human” value in series [2] was 13%.

`CCN1C=C\C(=C/C=C(\C=C/c2cc[n+](CC)c3ccccc23)c2cc[n+](CC)c3ccccc23)c2ccccc21.[I-].[I-]` [NK-4, 1-ethyl-4-[(1Z,3E,5E)-1-(1-ethylquinolin-1-ium-4-yl)-5-(1-ethylquinolin-4-ylidene)penta-1,3-dien-3-yl]quinolin-1-ium;iodide]: in series [1], the “phototoxicity conclusion from ROS assay” value is listed as “less phototoxic”. On to `COCCc1ccc(OCC(O)CNC(C)C)cc1` (centres unmarked) [metoprolol], for which the “PAMPA permeability of reference compound” value in series [3] (reference compound at 500 μM) was determined as 1.5 ×10⁻⁶ cm/s. For `Cc1cc(=O)n(-c2ccccc2)n1C` [antipyrine], the Papp at 4 h, 100 μM in series [3] (PAMPA, read-out: PAMPA permeability of reference compound) is 11 ×10⁻⁶ cm/s.
